The numbers were not newly measured in patent US9221029B2, “Automatic system for synthesizing 123I-MIBG and automatic device for synthesizing and dispensing 123I-MIBG comprising the same” (Institute of Nuclear Energy Research Atomic Energy Council, …, priority 2013, dated 2015), which cites them from elsewhere.

The test system of series [1] is neuroblastoma. The note with it: 21 neuroblastoma patients; especially at bones.
For the next series, the system named is neuroblast. The note with it: after intravenous injection.
For series [2], the system named is tumors (neuroblastoma cells). The note with it: after false-positive and false-negative imaging results are ruled out.
For series [3] the following is noted: used for diagnosis.
The subject of series [4] is neuroblastoma. The note with it: in vivo.
The conditions of series [5]: despite the use of oral potassium iodide (KI).
The conditions of series [6]: ranging from 15 minutes to 48 hours.

Where two headings read alike, the source gives them in different places.

Turning to `N=C(N)NCc1cccc(I)c1` [MIBG, meta-iodobenzylguanidine], in the series with neuroblastoma [1], the “sensitivity of imaging compared with FDG-PET” value was “higher sensitivity”. For the same molecule, the gathered in neuroblast in the series on neuroblast is given as 90%.
As for `N=C(N)NCc1cccc([123I])c1` [^123I-MIBG, iodine-123 meta-iodobenzylguanidine], the “specifically bound to tumors” value in series [2] is reported as around 100%. Besides, in series [3], the “patients with accumulated ^123I-MIBG in salivary glands” value is recorded as 92-100%.
Regarding `N=C(N)NCc1cccc([131I])c1` [^131I-MIBG], the “excreted out of the body through urine” value is reported as 57% (24 hours after injection) and 70% (48 hours after injection). For the same molecule, where the note is “one hour after injection, neuroblastoma patients”, the “still exists in the blood” value is at most 10%. Besides, the “treatment effective rate on neuroblastoma” value with neuroblastoma [4] was 30-40%. In addition, the “side effects of therapy” value in series [5] is “hypothyroidism still occurs”. The saliva-to-plasma ratio entry in series [6] is reported as “greater than 1.0”.
